# Test results from PubChem BioAssay (NCI).
#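 Briefly, cells in 96-well plates were exposed to five compound concentrations for 48 h, and endpoints were estimated by linear interpolation. GI50 is the concentration that inhibits growth by half. TGI marks complete inhibition of growth.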
# Key:
# Experiment in all cases: NCI anticancer screen, dose series, 48 h
# NCI-H226 lung = test system: NCI-H226 lung
# OVCAR-3 ovarian = test system: OVCAR-3 ovarian
# NCI-H460 lung = test system: NCI-H460 lung
# SNB-75 CNS = test system: SNB-75 CNS
# NCI-H23 lung = test system: NCI-H23 lung
# HL-60(TB) leukemia = test system: HL-60(TB) leukemia
# A498 renal = test system: A498 renal
# UO-31 renal = test system: UO-31 renal
# HCT-15 colon = test system: HCT-15 colon
# BT-549 breast = test system: BT-549 breast
Compound,TGI (NCI-H226 lung),TGI (OVCAR-3 ovarian),TGI (NCI-H460 lung),TGI (SNB-75 CNS),TGI (NCI-H23 lung),TGI (HL-60(TB) leukemia),TGI (A498 renal),TGI (UO-31 renal),TGI (HCT-15 colon),TGI (BT-549 breast),GI50 (A498 renal),GI50 (NCI-H226 lung),GI50 (OVCAR-3 ovarian),GI50 (NCI-H460 lung),GI50 (SNB-75 CNS),GI50 (NCI-H23 lung),GI50 (HL-60(TB) leukemia),GI50 (UO-31 renal),GI50 (HCT-15 colon),GI50 (BT-549 breast)
CCOc1c(OC)cc(CNNc2nccs2)cc1OC,> 100 µM,> 100 µM,> 100 µM,> 100 µM,> 100 µM,> 100 µM,> 100 µM,> 100 µM,> 100 µM,> 100 µM,,,,,,,,,,
O=S(=O)(N1CCCCN(S(=O)(=O)C(F)(F)F)CCCN(S(=O)(=O)C(F)(F)F)CCCN(S(=O)(=O)C(F)(F)F)CCCCN(S(=O)(=O)C(F)(F)F)CCCN(S(=O)(=O)C(F)(F)F)CCC1)C(F)(F)F,> 100 µM,> 100 µM,> 100 µM,92.8 µM,> 100 µM,> 100 µM,> 100 µM,> 100 µM,> 100 µM,73.2 µM,,,,,,,,,,
O=C1N[C@@H](c2c[nH]c3ccc(Br)cc23)C(=O)N[C@H]1c1c[nH]c2ccc(Br)cc12,26.9 µM,28.4 µM,27.8 µM,9.03 µM,28.2 µM,26.6 µM,18.5 µM,45 µM,37 µM,35.4 µM,,,,,,,,,,
CC1=C2CC3=C(C)C(=O)O[C@H]3C[C@@H](C)[C@@H]2CC1,> 100 µM,> 100 µM,> 100 µM,> 100 µM,> 100 µM,> 100 µM,> 100 µM,> 100 µM,> 100 µM,> 100 µM,,,,,,,,,,
CC(=O)CC(=O)Nn1c(-c2cccs2)nc2ccc(I)cc2c1=O,> 76.4 µM,> 78.5 µM,> 100 µM,> 100 µM,> 100 µM,> 100 µM,43.1 µM,> 91.3 µM,> 100 µM,> 71 µM,19.9 µM,,,,,,,,,
COc1cc2c(cc1C)NC(=O)/C2=C/c1c(Cl)n(C)c2ccccc12,27.2 µM,15.3 µM,29.1 µM,13.4 µM,21.6 µM,8.94 µM,21.5 µM,22.9 µM,20.5 µM,24.4 µM,,,,,,,,,,
Clc1ccc(CCn2ccc3ccccc32)c(Cl)c1,> 100 µM,> 100 µM,> 100 µM,> 100 µM,> 100 µM,> 100 µM,> 100 µM,> 100 µM,> 100 µM,> 100 µM,,,,,,,,,,
C=CC(C)(C)c1cc([C@@H]2COc3cc(O)ccc3C2=O)c(O)c(OC)c1OC,38.9 µM,23.3 µM,41.7 µM,25.6 µM,27.2 µM,44.2 µM,35.4 µM,28.3 µM,32.8 µM,25.1 µM,,,,,,,,,,
O=C1c2c(ccc3c2CCCC3)CC12Cc1ccccc1C2,71.7 µM,48.9 µM,> 47.1 µM,> 100 µM,> 96.2 µM,38.8 µM,77.5 µM,68.5 µM,> 49.8 µM,> 100 µM,,,,,,,,,,
COc1c(-c2ccc3c(c2)OCO3)oc2cc3c(c(OC)c2c1=O)OCO3,42.5 µM,74.9 µM,28 µM,44.9 µM,53.5 µM,4.1 µM,50.3 µM,71 µM,> 100 µM,46.6 µM,,,,,,,,,,
CN(C)CCCn1c2c(c3ccncc3c1=O)C(=O)c1ccccc1-2,2.47 µM,9.6 µM,3.63 µM,5.88 µM,9.63 µM,8.66 µM,20 µM,21 µM,11.9 µM,13.1 µM,2.15 µM,0.466 µM,1.99 µM,0.438 µM,1.02 µM,1.08 µM,0.858 µM,0.546 µM,0.513 µM,2.09 µM
CN1CCN(c2nc3c(c(=O)n(C)c(=O)n3C)n2C)CC1,> 100 µM,> 100 µM,> 100 µM,> 100 µM,> 100 µM,> 100 µM,> 100 µM,> 100 µM,> 100 µM,> 100 µM,,,,,,,,,,
CCCCCCc1cc2cc(C(=O)Nc3cccc(C(F)(F)F)c3)c(=N)oc2cc1O,3.52 µM,10.7 µM,> 32.1 µM,3.01 µM,1.76 µM,6.98 µM,14 µM,> 29.2 µM,4.36 µM,6.1 µM,,,,,,,,,,
COc1cc(OC)cc(N(C)Cc2cnc3nc(N)nc(N)c3c2C)c1,> 100 µM,> 31.6 µM,> 100 µM,> 100 µM,> 100 µM,> 100 µM,> 100 µM,> 100 µM,> 100 µM,> 100 µM,,,,,,,,,,
C[C@H]1C(=O)C2=C[C@H]1CCC(=O)[C@]1(C)CCCC(C)(C)[C@H]1C[C@H]2O,84.3 µM,84.9 µM,58.9 µM,82.8 µM,57.7 µM,39.7 µM,> 100 µM,75.1 µM,34.3 µM,94.5 µM,,,,,,,,,,
COc1ccc(N=Nc2ccc3oc(=O)c(C(=O)Nc4ccc(OC)cc4)cc3c2)cc1,32.8 µM,46.6 µM,79.4 µM,54.3 µM,43.8 µM,30.8 µM,9.17 µM,62.4 µM,45.2 µM,39 µM,,,,,,,,,,
